Drawing on ChEMBL document CHEMBL1146594, “The leupyrrins: a structurally unique family of secondary metabolites from the myxobacterium Sorangium cellulosum” (J Nat Prod, 2003), this text covers MIC, IC50 and Activity for 1 compound.

Test [1] has as its system Candida albicans. Description: Antifungal activity against Candida albicans. The format is functional.
Test [2] concerns Rhodotorula glutinis. Description: Antifungal activity against Rhodotorula glutinis. Type of test: functional.
Test [3] concerns Aspergillus niger. Description: Antifungal activity against Aspergillus niger. The format is functional.
Test [4] has as its system Botrytis cinerea. Put plainly: Antifungal activity against Botrytis cinerea. Type of test: functional.
In test [5] the test system is Mucor hiemalis. Description: Antifungal activity against Mucor hiemalis. The format is functional.
Test [6] has as its system L929. Put plainly: Cytotoxicity against mouse L929 cells. Type of test: cell-based.
Test [7] deals with Rhodotorula glutinis. Put plainly: Inhibition of DNA synthesis in Rhodotorula glutinis assessed as inhibition of [methyl-3H]thymine incorporation at 2.5 ug/mL after 30 mins. Type of test: functional, organism-based.
For test [8], the system named is Rhodotorula glutinis. Put plainly: Inhibition of RNA synthesis in Rhodotorula glutinis assessed as inhibition of [2-14C]uracil incorporation at 2.5 ug/mL after 30 mins. The format is functional, organism-based.
For test [9], the system named is Rhodotorula glutinis. Put plainly: Inhibition of protein synthesis in Rhodotorula glutinis assessed as inhibition of [U-14C]protein hydrolysate incorporation at 2.5 ug/mL after 30 mins. Type of test: functional, organism-based.

In brackets after ≈: the same amount, converted by molar mass. Activity calls are given as the source filed them. The rule behind the calls is not given here.

One may read the MIC as the lowest concentration that inhibits growth of the organism. The low end stands for inhibition by little substance, the high end for a need for much substance. As a reminder, the IC50 is the concentration at which inhibition is half-maximal. Turning to `COCCC/C(C)=C1\COC(CC(C)C)\C1=C/C1N=C2OC1COC(=O)[C@@H](CC(C)C)CC(=O)OC1C(OC(=O)C1(C)CO)/C(C)=C/Cc1ccc2[nH]1` (some centres undefined) [LEUPYRRIN A1], the MIC is above 25 µg/mL in test [1]; 0.25 µg/mL (≈ 0.338 µM) in [2]; 0.8 µg/mL (≈ 1.08 µM) in [3]; 0.8 µg/mL (≈ 1.08 µM) in test [4]; 0.3 µg/mL (≈ 0.406 µM) in test [5]. Also, the IC50 in test [6] came out at 1 µg/mL (≈ 1.35 µM). For the same compound, the outcome in test [7], in [8] and in [9] was Active.
